Test results published in patent publication US9326506B2, “Preparation method, agricultural composition and applications of natural brassinolide analogs” (CHENGDU NEWSUN CROPSCIENCE CO., LTD, priority 2012, dated 2016).

Tested on: rice
Assay: Low temperature assay on rice seedlings
Type: in vivo
How it was run: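 Nine-day-old etiolated rice seedlings (grown on water at 30 °C±2 °C, dark) immersed in brassinolide analogues at 1–0.0001 mg/L or pure water, held at 1–5 °C for 24 hr. Plant height, leaf area, root weight read at 3, 6, 9, 12 days; leaf and tiller number at 12 days.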

CC(C)[C@H](C)[C@@H](O)[C@H](O)[C@@H](C)[C@H]1CCC2C3COC(=O)C4C[C@H](O)[C@H](O)C[C@]4(C)C3CC[C@@]21C (stereo partly shown) [BR1]
Number of leaf (0.1 mg/l, 4 °C, 12 days): 3
Number of tiller (0.1 mg/l, 4 °C, 12 days): 2
Weight of root (0.1 mg/l, 4 °C, 12 days): 3.1 g
Area of leaf (0.1 mg/l, 5 °C, 3 days): 11.1 cm^2
Height (0.1 mg/l, 5 °C, 3 days): 7.7 cm
Weight of root (0.1 mg/l, 5 °C, 3 days): 2.9 g
Area of leaf (0.1 mg/l, 5 °C, 6 days): 13.9 cm^2
Height (0.1 mg/l, 5 °C, 6 days): 7.9 cm
Weight of root (0.1 mg/l, 5 °C, 6 days): 3.2 g
Area of leaf (0.1 mg/l, 5 °C, 9 days): 17.8 cm^2
Height (0.1 mg/l, 5 °C, 9 days): 8.4 cm
Weight of root (0.1 mg/l, 5 °C, 9 days): 3.5 g
Area of leaf (0.1 mg/l, 5 °C, 12 days): 19 cm^2
Height (0.1 mg/l, 5 °C, 12 days): 8.7 cm
Number of leaf (0.1 mg/l, 5 °C, 12 days): 3
Number of tiller (0.1 mg/l, 5 °C, 12 days): 2
Weight of root (0.1 mg/l, 5 °C, 12 days): 4.1 g
Area of leaf (1 mg/l, 1 °C, 3 days): 10 cm^2
Height (1 mg/l, 1 °C, 3 days): 7.1 cm
Weight of root (1 mg/l, 1 °C, 3 days): 2.8 g
Area of leaf (1 mg/l, 1 °C, 6 days): 11.2 cm^2
Height (1 mg/l, 1 °C, 6 days): 7.2 cm
Weight of root (1 mg/l, 1 °C, 6 days): 3.1 g
Area of leaf (1 mg/l, 1 °C, 9 days): 12.4 cm^2
Height (1 mg/l, 1 °C, 9 days): 7.3 cm
Weight of root (1 mg/l, 1 °C, 9 days): 3.4 g
Area of leaf (1 mg/l, 1 °C, 12 days): 13 cm^2
Height (1 mg/l, 1 °C, 12 days): 7.4 cm
Number of leaf (1 mg/l, 1 °C, 12 days): 3
Number of tiller (1 mg/l, 1 °C, 12 days): 3
Weight of root (1 mg/l, 1 °C, 12 days): 3.9 g
Area of leaf (1 mg/l, 2 °C, 3 days): 10.2 cm^2
Height (1 mg/l, 2 °C, 3 days): 7.1 cm
Weight of root (1 mg/l, 2 °C, 3 days): 2.8 g
Area of leaf (1 mg/l, 2 °C, 6 days): 11.7 cm^2
Height (1 mg/l, 2 °C, 6 days): 7.2 cm
Weight of root (1 mg/l, 2 °C, 6 days): 3.0 g
Area of leaf (1 mg/l, 2 °C, 9 days): 12.6 cm^2
Height (1 mg/l, 2 °C, 9 days): 7.3 cm
Weight of root (1 mg/l, 2 °C, 9 days): 3.2 g
Area of leaf (1 mg/l, 2 °C, 12 days): 13 cm^2
Height (1 mg/l, 2 °C, 12 days): 7.5 cm
Number of leaf (1 mg/l, 2 °C, 12 days): 3
Number of tiller (1 mg/l, 2 °C, 12 days): 3
Weight of root (1 mg/l, 2 °C, 12 days): 3.9 g
Area of leaf (1 mg/l, 3 °C, 3 days): 10.4 cm^2
Height (1 mg/l, 3 °C, 3 days): 7.1 cm
Weight of root (1 mg/l, 3 °C, 3 days): 2.5 g
Area of leaf (1 mg/l, 3 °C, 6 days): 12 cm^2
Height (1 mg/l, 3 °C, 6 days): 7.2 cm
Weight of root (1 mg/l, 3 °C, 6 days): 2.6 g
Area of leaf (1 mg/l, 3 °C, 9 days): 12.6 cm^2
Height (1 mg/l, 3 °C, 9 days): 7.5 cm
Weight of root (1 mg/l, 3 °C, 9 days): 2.9 g
Area of leaf (1 mg/l, 3 °C, 12 days): 13.2 cm^2
Height (1 mg/l, 3 °C, 12 days): 7.6 cm
Number of leaf (1 mg/l, 3 °C, 12 days): 3
Number of tiller (1 mg/l, 3 °C, 12 days): 2
Weight of root (1 mg/l, 3 °C, 12 days): 2.9 g
Area of leaf (1 mg/l, 4 °C, 3 days): 10.9 cm^2
Height (1 mg/l, 4 °C, 3 days): 7.1 cm
Weight of root (1 mg/l, 4 °C, 3 days): 2.5 g
Area of leaf (1 mg/l, 4 °C, 6 days): 12.6 cm^2
Height (1 mg/l, 4 °C, 6 days): 7.5 cm
Weight of root (1 mg/l, 4 °C, 6 days): 2.7 g
Area of leaf (1 mg/l, 4 °C, 9 days): 13.7 cm^2
Height (1 mg/l, 4 °C, 9 days): 7.6 cm
Weight of root (1 mg/l, 4 °C, 9 days): 3.0 g
Area of leaf (1 mg/l, 4 °C, 12 days): 14 cm^2
Height (1 mg/l, 4 °C, 12 days): 7.7 cm
Number of leaf (1 mg/l, 4 °C, 12 days): 3
Number of tiller (1 mg/l, 4 °C, 12 days): 2
Weight of root (1 mg/l, 4 °C, 12 days): 3.2 g
Area of leaf (1 mg/l, 5 °C, 3 days): 11.1 cm^2
Height (1 mg/l, 5 °C, 3 days): 7.7 cm
Weight of root (1 mg/l, 5 °C, 3 days): 2.9 g
Area of leaf (1 mg/l, 5 °C, 6 days): 13.6 cm^2
Height (1 mg/l, 5 °C, 6 days): 8.0 cm
Weight of root (1 mg/l, 5 °C, 6 days): 3.5 g
Area of leaf (1 mg/l, 5 °C, 9 days): 18.4 cm^2
Height (1 mg/l, 5 °C, 9 days): 8.6 cm
Weight of root (1 mg/l, 5 °C, 9 days): 3.7 g
Area of leaf (1 mg/l, 5 °C, 12 days): 20 cm^2
Height (1 mg/l, 5 °C, 12 days): 8.9 cm
Number of leaf (1 mg/l, 5 °C, 12 days): 3
Number of tiller (1 mg/l, 5 °C, 12 days): 2
Weight of root (1 mg/l, 5 °C, 12 days): 4.5 g
Effects on resistance to low temperature compared among analogues (in vivo): more than those of BR2, BR3 and BR4
